Results published in article PMC12211128, “Safety, tolerability, pharmacokinetic and pharmacodynamic effects of the muscarinic M1 positive allosteric modulator VU0467319 for Alzheimer’s disease: a single ascending-dose study in healthy participants” (Alzheimer's Research & Therapy, 2025).
Entries after “also recorded” stand apart in the source; their conditions may differ.

Columns and labels:
Format in all cases: in vivo, human
healthy participants [1] = assay: Treatment emergent adverse event (TEAE) monitoring
Method: (§1) Safety and tolerability were assessed throughout the study via treatment emergent adverse event (TEAE) monitoring, vital signs (blood pressure, pulse rate, respiration rate, oral temperature), physical examinations, 12-lead ECGs, and clinical laboratory parameters including complete blood count (CBC), coagulation, hematology, clinical chemistry assessments, and urinalysis. Safety laboratory tests were drawn at pre-dose and at 5, 24, 36 and 144-hours post-dose for 60–400 mg Cohorts; and at 24, 48, 72 and 144-hours post-dose for the 600 mg and Food Effect Cohort. ECG assessments were conducted at pre-dose and at 1, 2, 3, 5, 9, 24, 36 and 144-hours post-dose for 60–400 mg Cohorts; and at 2, 3, 5, 9, 24, 36, 72 and 144-hours post-dose for the 600 mg and Food Effect Cohort. All adverse events (AEs) were assessed by the investigator for severity and relationship to study medication or study procedures.
All AEs were coded using the Medical Dictionary for Regulatory Activities (MedDRA) version 22.0. All AEs were listed, and the emergence of TEAEs were categorized by body system affected and analyzed to determine whether they were related to treatment. Analysis of TEAEs for VU319 vs. Placebo were completed using Fisher’s Exact Test. Assessment of the grade of toxicity or relation to the study drug for each adverse event was determined by the Investigator. Changes in vital signs, physical examination, and laboratory tests were collected. Changes in vital signs from pre-dose to 48 h post-dose were placed into 10-time bins and assessed using mixed-measures ANOVA with the time bins as the within-subjects factor and dose as the between-subjects factor. To assess changes is QT analyses with respect to VU319 concentration, we calculated the maximal change in QTcF from baseline for each participant. We assessed the relationship between these maximal changes from baseline with the participant’s Cmax using Pearson correlations. Outlier QTcF values (> 450 ms) were also assessed against PK concentrations to examine it there was any relationship using Pearson correlations. Analyses of safety data was completed by SAS version 9.4.

healthy participants [2] = assay: Vital signs
Method: as §1, with “ECG assessments were conducted at pre-dose and at 1, 2, 3, 5, 9, 24, 36 and 144-hours post-dose for 60–400 mg Cohorts; and at 2, 3, 5, 9, 24, 36, 72 and 144-hours post-dose for the 600 mg and Food Effect Cohort.” left out
All AEs were coded using the Medical Dictionary for Regulatory Activities (MedDRA) version 22.0. All AEs were listed, and the emergence of TEAEs were categorized by body system affected and analyzed to determine whether they were related to treatment. […] Assessment of the grade of toxicity or relation to the study drug for each adverse event was determined by the Investigator. […] Changes in vital signs from pre-dose to 48 h post-dose were placed into 10-time bins and assessed using mixed-measures ANOVA with the time bins as the within-subjects factor and dose as the between-subjects factor. […]

healthy participants [3] = assay: Spatial selective attention test (SSAT); conditions: for SSAT Alerting Cost / SSAT Reorienting Cost: mean (SD)
Description: A version of the spatial selective attention test (SSAT; [33]) was used to assess the ability of participants to disengage attention and shift to a new target. Participants were asked to press a button corresponding to the side of the screen on which a stimulus appeared. The outcome variables of the task are the reaction time effects related to the ability of participants to anticipate a target when there is an ambiguous cue compared to there being no cue at all (Alerting effect: no cue– neutral cue); and the ability of participants to shift their attention between congruent and incongruent stimuli (Reorienting effect: invalid cue– valid cue).
Cognitive data: In this exploratory analysis, each outcome variable of the cognitive data was examined in a mixed model analysis of variance with one between-subjects factor of VU319 dose (0, 60, 120, 240, 400, 600 mg) and a within-subjects factor of testing session (pre-dose vs. post-dost administration). Post-hoc analysis compared each of the VU319 dose cohorts against the placebo group. Because the participants were healthy adults with normal cognitive function, we considered effects between no reductions in function to small improvement (d = 0.0–0.20) to be a positive result. For the food effect study, only the participants who received VU319 were examined due to the disproportionately small placebo group (n = 2). A within-subjects ANOVA including food condition (fasted/fed) and testing session (pre-dose vs. post-dose administration) was performed on each outcome variable.
A version of the spatial selective attention test (SSAT; (Posner, 1980)) was used to assess the ability of participants to disengage attention and shift to a new target. Participants were asked to press a button corresponding to the side of the screen on which a stimulus appeared. A central diamond was placed in between serving as a fixation point. Cues consisted of a 200-ms darkening of one side of the diamond depicting an arrowhead pointing to one of the peripheral boxes. The cue was followed by a target appearing for 100-ms in one of the boxes. To prevent temporal orienting, we used two randomly occurring cue–target intervals (400 and 700-ms). The targets were black diamonds that appeared in either the left or right boxes. In most trials, the cue validly predicted the target, however some cues were invalid, that is they pointed in the opposite direction of the target. On some trials, both sides of the diamond darkened, resulting in an ambiguous or neutral cue in which the participants were not able to prepare a specific hand to respond. […] The task consisted of 112 trials, with 64 trials (57%) with valid cues, and 16 trials (14.3%) each for the invalid, neutral or no cues conditions. The outcome variables of the task are the reaction time effects related to the ability of participants to anticipate a target when there is an ambiguous cue compared to there being no cue at all (Alerting effect: no cue – neutral cue); and the ability of participants to shift their attention between congruent and incongruent stimuli (Reorienting effect: invalid cue – valid cue).

[4] = Food effect study 120 mg, Fasting, Post-Drug
[5] = Food effect study 120 mg, Fasting, Pre-Drug
[6] = Food effect study 120 mg, Fed, Post-Drug
[7] = Food effect study 120 mg, Fed, Pre-Drug

Cn1cc2c(-c3cc(F)c(CN4Cc5ncccc5C4=O)c(F)c3)cccc2n1 [VU319]
TEAEs, VU319 vs placebo (Fisher's Exact Tests) (healthy participants [1]; in vivo): did not show a significant difference
number of TEAEs across the 5 active dose cohorts (healthy participants [1]; in vivo): 33
serious TEAEs, deaths, discontinuations (healthy participants [1]; single oral doses 60-600 mg): No TEAE was rated as serious; also recorded: no serious TEAEs or discontinuations occurred; also recorded: no deaths, serious TEAEs, or TEAEs leading to discontinuation
tolerability (healthy participants [1]; single oral doses 60 to 600 mg, healthy volunteers aged 18-55): Tolerability was good; also recorded: generally well tolerated
maximum tolerated dose (MTD) (healthy participants [1]; single oral doses up to 600 mg): not achieved
vitals measurements over the first 48 h post-dose (healthy participants [2]; SAD study): no significant dose-by-time interactions
vitals measurements over the first 48 h post-dose (healthy participants [2]; food effect study): no significant dose-by-time interactions
SSAT Alerting Cost (healthy participants [3]; [4]): 25.8 (59.97) ms
SSAT Reorienting Cost (healthy participants [3]; [4]): 49.55 (35.68) ms
SSAT Alerting Cost (healthy participants [3]; [5]): 60.4 (53.4) ms
SSAT Reorienting Cost (healthy participants [3]; [5]): 52.15 (24.83) ms
SSAT Alerting Cost (healthy participants [3]; [6]): 113.15 (181.48) ms
SSAT Reorienting Cost (healthy participants [3]; [6]): 49.45 (32.65) ms
SSAT Alerting Cost (healthy participants [3]; [7]): 54.1 (45.3) ms
SSAT Reorienting Cost (healthy participants [3]; [7]): 56.75 (38.19) ms
SSAT Alerting Cost (healthy participants [3]; SAD study, 60 mg, Post-Drug): 59.58 (43) ms
SSAT Reorienting Cost (healthy participants [3]; SAD study, 60 mg, Post-Drug): 55.25 (34.49) ms
SSAT Alerting Cost (healthy participants [3]; SAD study, 60 mg, Pre-Drug): 53.67 (39.48) ms
SSAT Reorienting Cost (healthy participants [3]; SAD study, 60 mg, Pre-Drug): 43.58 (31.92) ms
SSAT Alerting Cost (healthy participants [3]; SAD study, 120 mg, Post-Drug): 44.25 (22.86) ms
SSAT Reorienting Cost (healthy participants [3]; SAD study, 120 mg, Post-Drug): 20.33 (32.95) ms
SSAT Alerting Cost (healthy participants [3]; SAD study, 120 mg, Pre-Drug): 62.75 (45) ms
SSAT Reorienting Cost (healthy participants [3]; SAD study, 120 mg, Pre-Drug): 10.17 (18.88) ms
SSAT Alerting Cost (healthy participants [3]; SAD study, 240 mg, Post-Drug): 58.83 (38.04) ms
SSAT Reorienting Cost (healthy participants [3]; SAD study, 240 mg, Post-Drug): 39.67 (33.04) ms
SSAT Alerting Cost (healthy participants [3]; SAD study, 240 mg, Pre-Drug): 34.83 (27.3) ms
SSAT Reorienting Cost (healthy participants [3]; SAD study, 240 mg, Pre-Drug): 27.92 (29.28) ms
SSAT Alerting Cost (healthy participants [3]; SAD study, 400 mg, Post-Drug): 44.92 (26.61) ms
SSAT Reorienting Cost (healthy participants [3]; SAD study, 400 mg, Post-Drug): 31.25 (18.61) ms
SSAT Alerting Cost (healthy participants [3]; SAD study, 400 mg, Pre-Drug): 59.75 (24.51) ms
SSAT Reorienting Cost (healthy participants [3]; SAD study, 400 mg, Pre-Drug): 22.17 (25) ms
SSAT Alerting Cost (healthy participants [3]; SAD study, 600 mg, Post-Drug): 19.5 (41.26) ms
SSAT Reorienting Cost (healthy participants [3]; SAD study, 600 mg, Post-Drug): 31.33 (15.75) ms
SSAT Alerting Cost (healthy participants [3]; SAD study, 600 mg, Pre-Drug): 26.08 (37.44) ms
SSAT Reorienting Cost (healthy participants [3]; SAD study, 600 mg, Pre-Drug): 20.92 (11.57) ms
SSAT reorienting effect, effect of dose (healthy participants [3]; SAD study, both p > 0.3): no effect of dose, nor a dose by time interaction
SSAT, effect of food condition or time (healthy participants [3]; food effect study, 120 mg): no effect of either food condition or time
